Test results as given in US20150366831A1, “THROMBORESISTANT/BACTERICIDAL S-NITROSO-N-[…] (SNAP)-DOPED NITRIC OXIDE RELEASE POLYMERS WITH ENHANCED STABILITY” (THE REGENTS OF THE UNIVERSITY OF MICHIGNA, priority 2013, published 2015).

Test: SNAP/E2As dry storage stability study
Type: physicochemical
Conditions: SNAP doped in E2As polymer
Procedure: The stability of SNAP doped in the E2As polymer during dry storage was also evaluated. SNAP incorporated in E2As can potentially undergo thermal or photochemical decomposition during storage, thus limiting the available NO release capacity at the time of use. Therefore, 10 wt % SNAP/E2As films were stored with desiccant in the freezer in the dark, dry in the dark or in ambient light with desiccant at room temperature, and dry in the dark with desiccant at 37° C. and 50° C. These stability studies were conducted in a similar manner as the cumulative NO release experiments, where films were dissolved in DMAc to determine the amount of SNAP remaining in the polymer at various time points (as described herein). […] After 2 months, for example, the 10 wt % SNAP films stored in the freezer (−20° C.) in the dark maintain about 96% of the initial SNAP species, compared to 89% for films stored at room temperature and 82% for films stored at 37° C. (see FIG. 8). […]
SNAP/E2As films (consisting of 10 wt % SNAP) were placed under the following conditions in vials with desiccant: room temperature with ambient light, room temperature in dark, 37° C. in dark, and in the freezer (−20° C.) in dark. At various time points over a 4 month period, films were dissolved in DMAc, and the UV-Vis spectra was recorded to determine the % SNAP remaining in the film, as compared to the initial 10 wt % SNAP.

Compound: CC(=O)N[C@H](C(=O)O)C(C)(C)SN=O (racemic) [SNAP, S-nitroso-N-acetylpenicillamine]
- Time for which SNAP is stable in the Elast-Eon E2As polymer: at least 4 months
